What was measured:
[1] = biological target: Recombinant human His-tagged Kat6a protein (amino acids 194-810) (Homo sapiens (Human), UniProt Q92794); assay: Kat6a activity assay (TR-FRET, acetylation of biotinylated Histone-H4-derived peptide); assay type: biochemical; settings: 60 mins at 22° C., read-out: KAT6A-DPF/HAT domain IC50 [mol/l] (arithmetic mean)
Summary of the method: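 TR-FRET read-out of H4 K8 acetylation, using anti-acetyl-K8 antibody and streptavidin acceptor, after anacardic acid stop; IC50 from four-parameter regression normalized to DMSO. Reaction: recombinant human Kat6a aa 194-810 (insect-cell derived), 220 nM H4 1-24 peptide, 600 nM acetyl-CoA, pH 8, 22 °C, 60 min, compounds 0.01-20 μM.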

[2] = biological target: Recombinant human GST-tagged Kat6b protein (431-end); assay: Kat6b activity assay (TR-FRET, acetylation of biotinylated Histone-H4-derived peptide); assay type: biochemical; settings: 30 mins at 22° C., read-out: KAT6B activity assay IC50 [mol/l] (arithmetic mean)
[3] = system: ESR1 transcription (luciferase signal in MVLN cells); assay: Repression of ESR1 transcription, luciferase reporter in MVLN cells; assay type: cell-based; settings: Homo sapiens, MVLN, inhibition of luciferase signal in MVLN cells; arithmetic mean
Summary of the method: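 Luminescence from an ER-driven Vitellogenin A2 element–luciferase reporter was measured after 24 h of treatment of MVLN cells, in duplicate wells. Alamar Blue (2 h, 530/590 nm) served as a cell-density control.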

ZR-75-1 cells = assay: Proliferation assay ZR-75-1 (Alamar Blue, 144 h); assay type: cell-based; settings: Homo sapiens, ZR-75-1, 144 h, arithmetic mean, read-out: ZR75-1 proliferation assay, EC50 [M] (arithmetic mean)
Summary of the method: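 Alamar Blue fluorescence (590 nm, 2 h reagent step) measured viability after 144 h compound exposure at 37 °C, 5% CO2. Compounds spanned 2.0×10E-5 to 2.0×10E-9 M in 9 dilutions at 0.2% DMSO, in triplicate, added 24 h after plating 3000 cells/well in RPMI 1640 plus 2.5% FBS.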

MDA-MB-436 cells = assay: Proliferation assay MDA-MB-436, negative control cell line (Alamar Blue, 144 h); assay type: cell-based; settings: Homo sapiens, MDA-MB-436, 144 h, arithmetic mean
Summary of the method: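 Viability read as Alamar Blue fluorescence (590 nm, 2 h) after 144 h compound exposure at 37 °C, 5% CO2. Cells seeded at 3000 per well in 2.5% FBS DMEM/Ham's F12, dosed a day later over 2.0×10E-9–2.0×10E-5 M in 9 steps with 0.2% DMSO, in triplicate.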

Sequence of Recombinant human His-tagged Kat6a protein (amino acids 194-810) (Q92794 194-810): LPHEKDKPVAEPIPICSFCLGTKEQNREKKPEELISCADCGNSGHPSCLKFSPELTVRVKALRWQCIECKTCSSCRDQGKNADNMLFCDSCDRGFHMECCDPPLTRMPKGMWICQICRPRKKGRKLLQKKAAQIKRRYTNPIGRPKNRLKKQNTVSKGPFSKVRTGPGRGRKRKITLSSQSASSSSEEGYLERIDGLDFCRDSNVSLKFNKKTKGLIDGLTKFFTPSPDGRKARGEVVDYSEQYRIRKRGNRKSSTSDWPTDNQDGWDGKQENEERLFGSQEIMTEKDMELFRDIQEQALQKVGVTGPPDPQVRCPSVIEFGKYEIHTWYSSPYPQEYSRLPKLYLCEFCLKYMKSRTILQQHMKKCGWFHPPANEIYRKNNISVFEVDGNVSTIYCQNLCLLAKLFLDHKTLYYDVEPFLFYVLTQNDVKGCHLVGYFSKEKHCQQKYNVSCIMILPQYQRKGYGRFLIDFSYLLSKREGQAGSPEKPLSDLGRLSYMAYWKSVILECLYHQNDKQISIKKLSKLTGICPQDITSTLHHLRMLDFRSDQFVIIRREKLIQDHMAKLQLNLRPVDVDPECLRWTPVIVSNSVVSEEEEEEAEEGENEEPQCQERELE

| IC50 [1] | IC50 [2] | IC50 [3] | EC50 (MDA-MB-436 cells) | Structure (SMILES) | EC50 (ZR-75-1 cells) |
| --- | --- | --- | --- | --- | --- |
| 7.48 nM | 3.82 nM | 12.4 nM | > 20000 nM | CN(C)c1cc(F)c2cc(C(=O)NS(=O)(=O)c3ccccc3OC3CC3)oc2c1 [Example 110, N-[2-(Cyclopropyloxy)benzene-1-sulfonyl]-6-(dimethylamino)-4-fluoro-1-benzofuran-2-carboxamide] | 7.12e-08 M |
| 8.93 nM | 19 nM | 15.4 nM | > 20000 nM | CCCOc1ccccc1S(=O)(=O)NC(=O)c1cc2c(F)cc(N(C)C)cc2o1 [Example 111, 6-(Dimethylamino)-4-fluoro-N-(2-propoxybenzene-1-sulfonyl)-1-benzofuran-2-carboxamide] | 4.89e-08 M |
| 17.7 nM | 18.1 nM | 45.2 nM | > 20000 nM | COc1ccccc1S(=O)(=O)NC(=O)c1cc2c(F)cc(N(C)C)cc2o1 [Example 112, 6-(Dimethylamino)-4-fluoro-N-(2-methoxybenzene-1-sulfonyl)-1-benzofuran-2-carboxamide] | 4.78e-08 M |
| 7.25 nM | 7.24 nM | 70.3 nM | > 20000 nM | CCOc1ccc(Br)cc1S(=O)(=O)NC(=O)c1cc2c(F)cc(N(C)C)cc2o1 [Example 113, N-(5-Bromo-2-ethoxybenzene-1-sulfonyl)-6-(dimethylamino)-4-fluoro-1-benzofuran-2-carboxamide] | 1.02e-07 M |
| 114 nM | 150 nM | 58 nM | > 20000 nM | COc1ccccc1S(=O)(=O)NC(=O)c1cc2ccc(N(C)C)cc2o1 [Example 114, 6-(Dimethylamino)-N-(2-methoxybenzene-1-sulfonyl)-1-benzofuran-2-carboxamide] | 1.07e-07 M |
| 64.6 nM | 87.2 nM | 64.2 nM | > 20000 nM | CCCOc1ccc(C)cc1S(=O)(=O)NC(=O)c1cc2ccc(N(C)C)cc2o1 [Example 115, 6-(Dimethylamino)-N-(5-methyl-2-propoxybenzene-1-sulfonyl)-1-benzofuran-2-carboxamide] | 7.02e-08 M |
| 453 nM | 508 nM | 270 nM | > 20000 nM | CCOc1cccc(C)c1S(=O)(=O)NC(=O)c1cc2ccc(N(C)C)cc2o1 [Example 116, 6-(Dimethylamino)-N-(2-ethoxy-6-methylbenzene-1-sulfonyl)-1-benzofuran-2-carboxamide] | 3.24e-07 M |
| 294 nM | 342 nM | 276 nM | > 20000 nM | CN(C)c1ccc2cc(C(=O)NS(=O)(=O)c3ccccc3OCCNC(=O)OC(C)(C)C)oc2c1 [Example 117, tert-butyl [2-(2-{[6-(dimethylamino)-1-benzofuran-2-carbonyl]sulfamoyl}phenoxy)ethyl]carbamate] | 6.03e-07 M |
| 185 nM | 374 nM | 218 nM | > 20000 nM | CCCOc1cccc(CC)c1S(=O)(=O)NC(=O)c1cc2ccc(N(C)C)cc2o1 [Example 119, 6-(Dimethylamino)-N-(2-ethyl-6-propoxybenzene-1-sulfonyl)-1-benzofuran-2-carboxamide] | 6.98e-07 M |
| 179 nM | 227 nM | 275 nM | > 20000 nM | CCOc1cccc(Br)c1S(=O)(=O)NC(=O)c1cc2ccc(N(C)C)cc2o1 [Example 121, N-(2-Bromo-6-ethoxybenzene-1-sulfonyl)-6-(dimethylamino)-1-benzofuran-2-carboxamide] | 3.56e-07 M |
| 275 nM | 257 nM | 179 nM | > 20000 nM | CCOc1cccc(F)c1S(=O)(=O)NC(=O)c1cc2ccc(N(C)C)cc2o1 [Example 123, 6-(Dimethylamino)-N-(2-ethoxy-6-fluorobenzene-1-sulfonyl)-1-benzofuran-2-carboxamide] | 1.19e-07 M |
| 20.5 nM | 23.8 nM | 30.6 nM | > 20000 nM | CN(C)c1ccc2cc(C(=O)NS(=O)(=O)c3cccc4ccc(Cl)nc34)oc2c1 [Example 126, N-(2-Chloroquinoline-8-sulfonyl)-6-(dimethylamino)-1-benzofuran-2-carboxamide] | 6.98e-08 M |
| 13.5 nM | 16.8 nM | 28.6 nM | > 20000 nM | CCOc1ccc(C(C)C)cc1S(=O)(=O)NC(=O)c1cc2ccc(N(C)C)cc2o1 [Example 129, 6-(Dimethylamino)-N-[2-ethoxy-5-(propan-2-yl)benzene-1-sulfonyl]-1-benzofuran-2-carboxamide] | 6.17e-07 M |
| 134 nM | 72.7 nM | 80.1 nM | > 20000 nM | COc1cccc(C(F)(F)F)c1S(=O)(=O)NC(=O)c1cc2ccc(N(C)C)cc2o1 [Example 132, 6-(Dimethylamino)-N-[2-methoxy-6-(trifluoromethyl)benzene-1-sulfonyl]-1-benzofuran-2-carboxamide] | 1.05e-07 M |
| 81.5 nM | 107 nM | 5500 nM | > 20000 nM | CN(C)c1ccc2cc(C(=O)NS(=O)(=O)c3cc(Cl)c(Cl)cc3OC(F)(F)F)oc2c1 [Example 137, N-[4,5-Dichloro-2-(trifluoromethoxy)benzene-1-sulfonyl]-6-(dimethylamino)-1-benzofuran-2-carboxamide] | 5.61e-06 M |
| 56.7 nM | 79.5 nM | 216 nM | > 20000 nM | COc1cc(C)c(Cl)cc1S(=O)(=O)NC(=O)c1cc2ccc(N(C)C)cc2o1 [Example 138, N-(5-Chloro-2-methoxy-4-methylbenzene-1-sulfonyl)-6-(dimethylamino)-1-benzofuran-2-carboxamide] | 5.01e-07 M |
| 329 nM | 369 nM | 1370 nM | > 20000 nM | COc1ccc(Cl)c(S(=O)(=O)NC(=O)c2cc3ccc(N(C)C)cc3o2)c1 [Example 139, N-(2-Chloro-5-methoxybenzene-1-sulfonyl)-6-(dimethylamino)-1-benzofuran-2-carboxamide] | 7.07e-07 M |
| 139 nM | 229 nM | 166 nM | > 20000 nM | CN(C)c1ccc2cc(C(=O)NS(=O)(=O)c3c(F)cccc3OC3CCC3)oc2c1 [Example 142, N-[2-(Cyclobutyloxy)-6-fluorobenzene-1-sulfonyl]-6-(dimethylamino)-1-benzofuran-2-carboxamide] | 4.37e-07 M |
| 29.3 nM | 43.1 nM | 40.8 nM | > 20000 nM | CCOc1ccc(CC)cc1S(=O)(=O)NC(=O)c1cc2ccc(N(C)C)cc2o1 [Example 143, 6-(Dimethylamino)-N-(2-ethoxy-5-ethylbenzene-1-sulfonyl)-1-benzofuran-2-carboxamide] | 6.42e-08 M |
| 98.6 nM | 69.2 nM | 86.8 nM | > 20000 nM | CCc1cccc(OC)c1S(=O)(=O)NC(=O)c1cc2ccc(N(C)C)cc2o1 [Example 147, 6-(Dimethylamino)-N-(2-ethyl-6-methoxybenzene-1-sulfonyl)-1-benzofuran-2-carboxamide] | 7.83e-08 M |
